Reference: patent EP1108430A1, “CALCIUM CHANNEL ANTAGONISTS” (Nippon Shinyaku Co., Ltd., priority 1998, dated 2000)

How the values were obtained:
P/Q-type Ca^2+ channel = P/Q-type Ca^2+ channel (Mus musculus, UniProt P97445); assay: KCl-induced NOS activation in the presence of 1 µM nifedipine (response mediated by the P/Q-type channel); format: cell-based
L-type Ca^2+ channel = format: cell-based, mouse; conditions: 3∼30 µM; Dunnett's test; Fig. 1
[1] = tested on: dopamine release from the rat striatum; assay: In vivo dopamine release from the striatum (microdialysis); conditions: for effect on dopamine release: rat, in vivo
Description: The release of dopamine from the rat striatum was measured by the in vivo microdialysis method. A microdialysis probe fitted with a microinjection cannula was inserted into the striatum of an 8∼10·week·old male SD rat and the striatum was perfused with Ringer's solution at a rate of 2 µl/min.
Beginning 2 hours after the start of perfusion, the perfusate was recovered at a 20-minute interval and the dopamine in each perfusate was measured with a high-performance liquid chromatography-electrochemical detector. The drug was perfused into the striatum through the microdialysis probe or microinjected into the striatum via the microinjection cannula. The effect of the drug on the basal dopamine release was evaluated by comparing the values before and after stimulation and a statistical analysis was made by Dunnett's test. Then, to evaluate the effect of Compound 1A on KCl·stimulated dopamine release, the amount of dopamine released in the presence of Compound 1A (10 µM) (ipsilateral striatum) was compared with the amount of KCl-stimulated dopamine release in the absence of Compound 1A (contralateral striatum) and the difference was statistically analyzed by paired t-test.
Therefore, with a microdialysis probe inserted bilaterally, one of the striatum was perfused with Ringer's solution (control side) and the other striatum with Compound 1A (10 µM). K^+ stimulation, 25∼80 mM, was consecutively given at a 20-minute interval.

[2] = tested on: mouse cerebral cortex-derived primary cultured neurons; assay: Elevation of intracellular calcium ion concentration under high-potassium stimulation (fura-2/AM 2-wavelength fluorescence); format: cell-based; conditions: 1 - 30 µM; added 10 minutes before the second stimulation; Fig. 2; Dunnett's test, p<0.01
Description: In the dish (the bottom opening fitted with cover glass) used for the measurement of calcium ion concentration, neurons on day 5 of culture were allowed to take up the fluorescent calcium probe fura-2/AM before determination. Thus, cultured neurons were incubated in 10 mM HEPES-NaOH buffer (pH 7.05) containing 10 µM fura-2/AM, 5.4 mM KC1, 130 mM NaCl, 2.5 mM CaCl2 and 5.5 mM D-glucose at 37°C for 30 minutes to let fura-2/AM taken up in the cells. Thereafter, incubation was further continued for 30 minutes, whereby the fura-2/AM taken up in the cells was converted to fura-2 by endogenous esterase activity. […]
The calcium ion concentration was determined by the method of Grynkiewicz et al. (1985). Thus, by fluorescent microscope-image processing, the calcium ion concentration was determined from the fluorescence intensities of fura - 2/Ca^2+ at the exciting wavelengths of 340 nm and 380 nm. Using Argus-50/CA System (Hamamatsu Photonics), a calibration curve constructed beforehand was transformed to find the intracellular calcium ion concentration from the fluorescence intensity ratio.
The high-potassium stimulus was given twice, 15 minutes apart and for 15 seconds each, and the ratio of increase in free calcium ion concentration in response to the stimulations was calculated. […]

[3] = tested on: nitric oxide synthase (NOS); assay: cells; format: cell-based, mouse

P/Q-type Ca^2+ channel, sequence (P97445 whole entry): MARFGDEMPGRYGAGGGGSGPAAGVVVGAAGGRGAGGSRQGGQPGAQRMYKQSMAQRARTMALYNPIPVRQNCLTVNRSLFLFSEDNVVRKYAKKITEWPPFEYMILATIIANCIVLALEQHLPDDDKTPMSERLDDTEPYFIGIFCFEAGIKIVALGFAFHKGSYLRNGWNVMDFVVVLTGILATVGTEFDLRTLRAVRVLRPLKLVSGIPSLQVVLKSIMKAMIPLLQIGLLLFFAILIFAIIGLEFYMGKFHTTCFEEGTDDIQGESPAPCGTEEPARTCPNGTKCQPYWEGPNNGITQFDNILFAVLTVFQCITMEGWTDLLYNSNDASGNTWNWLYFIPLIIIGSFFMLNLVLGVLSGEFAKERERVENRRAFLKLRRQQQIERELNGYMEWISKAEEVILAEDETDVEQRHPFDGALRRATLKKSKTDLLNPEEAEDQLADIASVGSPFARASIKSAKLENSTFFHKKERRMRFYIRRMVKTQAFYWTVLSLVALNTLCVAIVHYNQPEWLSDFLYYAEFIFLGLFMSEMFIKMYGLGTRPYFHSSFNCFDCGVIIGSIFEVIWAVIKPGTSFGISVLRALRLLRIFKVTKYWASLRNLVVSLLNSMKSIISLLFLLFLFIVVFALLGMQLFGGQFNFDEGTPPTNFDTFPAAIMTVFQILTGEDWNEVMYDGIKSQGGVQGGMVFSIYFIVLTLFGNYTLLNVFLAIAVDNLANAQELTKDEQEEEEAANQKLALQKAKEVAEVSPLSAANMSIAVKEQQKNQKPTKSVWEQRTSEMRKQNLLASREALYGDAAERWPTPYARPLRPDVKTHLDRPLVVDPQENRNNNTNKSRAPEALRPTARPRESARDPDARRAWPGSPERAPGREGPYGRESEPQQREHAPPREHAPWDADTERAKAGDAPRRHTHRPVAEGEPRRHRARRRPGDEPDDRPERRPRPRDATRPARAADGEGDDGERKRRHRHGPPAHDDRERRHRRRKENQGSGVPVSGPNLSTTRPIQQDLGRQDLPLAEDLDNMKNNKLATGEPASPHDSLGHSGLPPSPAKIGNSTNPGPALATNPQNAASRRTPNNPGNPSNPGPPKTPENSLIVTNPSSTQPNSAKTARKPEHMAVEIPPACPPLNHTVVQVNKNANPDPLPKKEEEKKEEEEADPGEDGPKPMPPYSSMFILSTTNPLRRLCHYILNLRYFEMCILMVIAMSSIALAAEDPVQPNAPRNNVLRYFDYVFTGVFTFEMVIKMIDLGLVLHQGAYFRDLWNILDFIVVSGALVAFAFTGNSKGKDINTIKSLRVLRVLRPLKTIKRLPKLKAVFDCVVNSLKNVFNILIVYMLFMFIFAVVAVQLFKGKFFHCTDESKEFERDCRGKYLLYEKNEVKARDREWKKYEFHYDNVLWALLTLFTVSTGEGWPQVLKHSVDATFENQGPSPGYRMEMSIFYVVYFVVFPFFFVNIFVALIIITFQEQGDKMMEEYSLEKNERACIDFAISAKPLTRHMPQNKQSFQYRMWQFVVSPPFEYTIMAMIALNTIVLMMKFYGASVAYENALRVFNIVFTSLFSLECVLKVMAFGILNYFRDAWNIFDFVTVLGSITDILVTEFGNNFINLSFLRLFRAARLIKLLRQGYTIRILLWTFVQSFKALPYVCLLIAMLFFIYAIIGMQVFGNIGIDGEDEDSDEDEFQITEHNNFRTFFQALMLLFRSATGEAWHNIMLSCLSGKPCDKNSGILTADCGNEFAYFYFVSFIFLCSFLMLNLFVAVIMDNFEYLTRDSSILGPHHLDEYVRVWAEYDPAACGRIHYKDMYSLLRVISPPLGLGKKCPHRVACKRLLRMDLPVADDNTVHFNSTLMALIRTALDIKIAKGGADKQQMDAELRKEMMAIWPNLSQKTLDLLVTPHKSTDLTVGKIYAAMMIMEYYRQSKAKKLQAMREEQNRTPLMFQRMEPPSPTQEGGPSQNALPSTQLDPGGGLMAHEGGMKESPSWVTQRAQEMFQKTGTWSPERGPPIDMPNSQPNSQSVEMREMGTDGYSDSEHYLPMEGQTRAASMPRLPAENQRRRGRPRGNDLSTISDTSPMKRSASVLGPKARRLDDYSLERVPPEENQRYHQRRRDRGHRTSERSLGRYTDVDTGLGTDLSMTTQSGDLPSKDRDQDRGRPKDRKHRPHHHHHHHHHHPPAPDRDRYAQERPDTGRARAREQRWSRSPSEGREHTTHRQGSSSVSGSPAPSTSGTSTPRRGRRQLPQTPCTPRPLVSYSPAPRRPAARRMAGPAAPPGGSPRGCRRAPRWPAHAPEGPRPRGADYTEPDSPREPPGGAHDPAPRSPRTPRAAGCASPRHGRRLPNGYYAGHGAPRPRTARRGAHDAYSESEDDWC

Molecule: Cc1nc(OCCCCCN2CCCCC2)cc(-c2ccc(F)cc2)n1 [Compound 1A, 4-(4-fluorophenyl)-2-methyl-6-(5-piperidinopentyloxy)pyrimidine]
- inhibition of the response mediated by the P/Q-type Ca^2+ channel (NOS activation in the presence of 1 µM nifedipine) (P/Q-type Ca^2+ channel; 10 µM): completely inhibited
- inhibition of the NOS activation in the presence of 1 µM nifedipine (the response mediated by the P/Q-type Ca^2+ channel) (P/Q-type Ca^2+ channel; 3∼30 µM, Dunnett's test, Fig. 1): significant (P<0.01) and concentration-dependent inhibitions
- inhibition of the NOS activation in the presence of 0.1 µM ω-agatoxin IVA (the response mediated by the L-type Ca^2+ channel) (L-type Ca^2+ channel): significant (P<0.01) and concentration-dependent inhibitions
- inhibition of dopamine release at 80 mM KCl ([1]; 10 µM perfused into the striatum, 80 mM KCl, Fig. 3, p<0.05, paired t-test): inhibited dopamine release significantly
- inhibitory effect on dopamine release under K^+ stimulation ([1]; 10 µM perfused into the striatum, K^+ stimulation 25∼80 mM at a 20-minute interval, versus contralateral control side): marked inhibitory effects on dopamine release with an increasing potassium concentration
- inhibition of the high-potassium-stimulated increase in intracellular calcium ion concentration [2]: inhibit the high-potassium-stimulated increase in intracellular calcium ion concentration in a concentration-dependent manner

Molecule: COC(=O)C1=C(C)NC(C)=C(C(=O)OC)C1c1ccccc1[N+](=O)[O-] [nifedipine]
- inhibition at 1 µM ([3]; Mus musculus, Neuron, read-out: inhibition of NOS activated on high-potassium stimulation of neurons): ~56%

Molecule: ω-agatoxin IVA [reference compound]
- inhibition of NOS activated on high-potassium stimulation of neurons ([3]; 0.1 µM): about 53%
- effect on dopamine release [1]: significant decrease (p<0.01)

Molecule: ω-conotoxin GVIA [reference compound]
- effect on the NOS activation by KCl stimulation ([3]; 5 µM): substantially no effect
- effect on dopamine release [1]: significant decrease (p<0.01)
